Assays:
HIV-2 = details: 25 mM, human plasma, 30 min; cited from earlier work
HIV-1 = details: 25 mM, human plasma, 30 min; cited from earlier work
HSV-1 [1] = assay: Virucidal activity against HSV-1 in culture medium (MM); assay type: cell-based, Herpes simplex virus type 1; details: room temperature, 1 minute
C. trachomatis = assay: Inactivation of C. trachomatis; details: 37° C., 10 minutes
HSV-1 [2] = assay: Virucidal activity against HSV-1 in human semen; details: room temperature, 1 minute
Enveloped viruses = details: virucidal activity in cell culture media; cited from earlier work
VV = assay: Virucidal activity against visna virus (VV) in culture medium (MM); assay type: cell-based; details: room temperature, 1 minute
Experimental: The lipids were dissolved in ethanol at a concentration of 1 M and stored at 4° C. In each experiment they were suspended in MM by vortexing at the highest speed for 1 min.

[3] = tested on: vaginal mucosa of rabbits; details: rabbit, in vivo

CCCCCCCCOC[C@@H](O)CO [1-0-Octyl-SN-glycerol]
inactivated HIV-2 (HIV-2): more than 10^9 fold | inactivated HIV-1 (HIV-1): more than 10^9 fold

CCCCCCCCCC(=O)O [Capric acid, capric acid]
Reduction of virus titer,log10 HSV-1 (HSV-1 [1]; lipid 20 mM in MM): <0.5 log10

CCCCCCCC(=O)OCC(O)CO (stereo not shown) [Caprylic acid 1-monoglyceride, caprylic acid 1-monoglyceride]
Reduction of virus titer,log10 HSV-1 (HSV-1 [1]; lipid 10 mM in MM): 0 log10 | Reduction of virus titer,log10 HSV-1 (HSV-1 [1]; lipid 20 mM in MM): 0.5 log10 | Reduction of IFU (log10) (C. trachomatis; monoglyceride 5 mM in medium): 0.1 log10 | Reduction of IFU (log10) (C. trachomatis; monoglyceride 10 mM in medium): 0.3 log10 | Reduction of IFU (log10) (C. trachomatis; monoglyceride 20 mM in medium): 0.2 log10 | Reduction of HSV-1 titer, log10 (HSV-1 [2]; monoglyceride 20 mM): 1.0 log10

CCCCCCCCCCCC(=O)OCC(O)CO (stereo not shown) [Lauric acid 1-monoglyceride, lauric acid 1-monoglyceride]
Reduction of virus titer,log10 HSV-1 (HSV-1 [1]; lipid 5 mM in MM): 3.0 log10 | Reduction of virus titer,log10 HSV-1 (HSV-1 [1]; lipid 10 mM in MM): 3.5 log10 | Reduction of virus titer,log10 HSV-1 (HSV-1 [1]; lipid 20 mM in MM): 3.1 log10 | more active than the corresponding free fatty acid (capric and lauric acids) (Enveloped viruses): 10 fold | Reduction of IFU (log10) (C. trachomatis; monoglyceride 5 mM in medium): 0.5 log10 | Reduction of IFU (log10) (C. trachomatis; monoglyceride 10 mM in medium): 0.7 log10 | Reduction of IFU (log10) (C. trachomatis; monoglyceride 20 mM in medium): 0.5 log10 | Reduction of HSV-1 titer, log10 (HSV-1 [2]; monoglyceride 20 mM): 2.0 log10

CCCCCCCCCCCC(=O)O [Lauric acid, lauric acid]
Reduction of virus titer,log10 HSV-1 (HSV-1 [1]; lipid 10 mM in MM): <1.5 log10 | Reduction of virus titer,log10 HSV-1 (HSV-1 [1]; lipid 20 mM in MM): >5.8 log10

CCCCCCCCCC(=O)OCC(O)CO (stereo not shown) [Monocaprin, capric acid 1-monoglyceride]
Reduction of virus titer,log10 HSV-1 (HSV-1 [1]; lipid 2.5 mM in MM): 2.2 log10 | Reduction of virus titer,log10 HSV-1 (HSV-1 [1]; lipid 5 mM in MM): >5.5 log10 | Reduction of virus titer,log10 HSV-1 (HSV-1 [1]; lipid 10 mM in MM): >5.3 log10 | Reduction of virus titer,log10 HSV-1 (HSV-1 [1]; lipid 20 mM in MM): >5.8 log10 | Reduction of virus titer,log10 VV (VV; lipid 10 mM in MM): 2.4 log10 | Reduction of virus titer,log10 VV (VV; lipid 20 mM in MM): 3.8 log10 | more active than the corresponding free fatty acid (capric and lauric acids) (Enveloped viruses): 10 fold | Reduction of IFU (log10) (C. trachomatis; monoglyceride 5 mM in medium): >5.6 log10 | Reduction of IFU (log10) (C. trachomatis; monoglyceride 10 mM in medium): >5.6 log10 | Reduction of IFU (log10) (C. trachomatis; monoglyceride 20 mM in medium): >4.6 log10 | Reduction of HSV-1 titer, log10 (HSV-1 [2]; monoglyceride 10 mM): 3.0 log10 | Reduction of HSV-1 titer, log10 (HSV-1 [2]; monoglyceride 20 mM): >4.0 log10

CCCCCCCCCCCCCC(=O)O [Myristic acid, myristic acid]
Reduction of virus titer,log10 HSV-1 (HSV-1 [1]; lipid 10 mM in MM): 0 log10 | Reduction of virus titer,log10 HSV-1 (HSV-1 [1]; lipid 20 mM in MM): 0 log10

CCCCCCCC/C=C\CCCCCCCC(=O)OCC(O)CO (stereo not shown) [Oleic acid 1-monoglyceride, oleic acid 1-monoglyceride]
Reduction of virus titer,log10 HSV-1 (HSV-1 [1]; lipid 10 mM in MM): <1.0 log10 | Reduction of virus titer,log10 HSV-1 (HSV-1 [1]; lipid 20 mM in MM): <1.0 log10

CCCCCCCC/C=C\CCCCCCCC(=O)O [Oleic acid, oleic acid]
Reduction of virus titer,log10 HSV-1 (HSV-1 [1]; lipid 10 mM in MM): <1.0 log10 | Reduction of virus titer,log10 HSV-1 (HSV-1 [1]; lipid 20 mM in MM): <1.0 log10

CCCCCC/C=C\CCCCCCCC(=O)OCC(O)CO (stereo not shown) [Palmitoleic acid 1-monoglyceride, palmitoleic acid 1-monoglyceride]
Reduction of virus titer,log10 HSV-1 (HSV-1 [1]; lipid 10 mM in MM): 0 log10 | Reduction of virus titer,log10 HSV-1 (HSV-1 [1]; lipid 20 mM in MM): 0 log10 | Reduction of virus titer,log10 VV (VV; lipid 10 mM in MM): 0.7 log10

CCCCCC/C=C\CCCCCCCC(=O)O [Palmitoleic acid, palmitoleic acid]
Reduction of virus titer,log10 HSV-1 (HSV-1 [1]; lipid 5 mM in MM): <1.0 log10 | Reduction of virus titer,log10 HSV-1 (HSV-1 [1]; lipid 10 mM in MM): >5.0 log10

CC(O)CO (stereo not shown) [propylene glycol]
effects in the vaginal mucosa of rabbits (in words) [3]: toxic effects
